This note sets out measurements from ChEMBL document CHEMBL6127087 (Eur J Med Chem, 2024).

pIC50, pKd: −log10 of the molar value. Calls of active or inactive are those of the source. The calls are words filed in the database; no cut-off is given here.

For series [1], the system named is Mus musculus. The series can be described thus: Anti-inflammatory activity in LPS-induced male C57BL/6 mouse model of acute […] injury assessed as reduction in interstitial edema in lung at 2 to 6 mg/kg, IG preadministered with compound for 7 days followed by LPS administration and measured after 24 hrs by H and E staining based histopathological analysis. Format: functional, organism-based. To be noted: dose 2-6 mg/kg, time 8.0 day.

In series [2] the test system is Mus musculus. The series can be described thus: Anti-inflammatory activity in LPS-induced male C57BL/6 mouse model of acute […] injury assessed as reduction in infiltration of neutrophils into lung at 2 to 6 mg/kg, IG preadministered with compound for 7 days followed by LPS administration and measured after 24 hrs by immunofluorescence analysis. Particulars: dose 2-6 mg/kg, time 8.0 day. Format: functional, organism-based.

Series [3] concerns Mus musculus. The series can be described thus: Anti-inflammatory activity in LPS-induced male C57BL/6 mouse model of acute […] injury assessed as inhibition of CXCL10 mRNA expression at 2 to 6 mg/kg, IG preadministered with compound for 7 days followed by LPS administration and measured after 24 hrs by RT-PCR analysis. Format: functional, organism-based. Particulars: dose 2-6 mg/kg, time 8.0 day.

In series [4] the target is Voltage-gated inwardly rectifying potassium channel KCNH2 (Homo sapiens, UniProt Q12809). Nature of the series: Inhibition of human ERG by PatchXpress analysis. Format: toxicity.
Voltage-gated inwardly rectifying potassium channel KCNH2, sequence (Q12809 whole entry): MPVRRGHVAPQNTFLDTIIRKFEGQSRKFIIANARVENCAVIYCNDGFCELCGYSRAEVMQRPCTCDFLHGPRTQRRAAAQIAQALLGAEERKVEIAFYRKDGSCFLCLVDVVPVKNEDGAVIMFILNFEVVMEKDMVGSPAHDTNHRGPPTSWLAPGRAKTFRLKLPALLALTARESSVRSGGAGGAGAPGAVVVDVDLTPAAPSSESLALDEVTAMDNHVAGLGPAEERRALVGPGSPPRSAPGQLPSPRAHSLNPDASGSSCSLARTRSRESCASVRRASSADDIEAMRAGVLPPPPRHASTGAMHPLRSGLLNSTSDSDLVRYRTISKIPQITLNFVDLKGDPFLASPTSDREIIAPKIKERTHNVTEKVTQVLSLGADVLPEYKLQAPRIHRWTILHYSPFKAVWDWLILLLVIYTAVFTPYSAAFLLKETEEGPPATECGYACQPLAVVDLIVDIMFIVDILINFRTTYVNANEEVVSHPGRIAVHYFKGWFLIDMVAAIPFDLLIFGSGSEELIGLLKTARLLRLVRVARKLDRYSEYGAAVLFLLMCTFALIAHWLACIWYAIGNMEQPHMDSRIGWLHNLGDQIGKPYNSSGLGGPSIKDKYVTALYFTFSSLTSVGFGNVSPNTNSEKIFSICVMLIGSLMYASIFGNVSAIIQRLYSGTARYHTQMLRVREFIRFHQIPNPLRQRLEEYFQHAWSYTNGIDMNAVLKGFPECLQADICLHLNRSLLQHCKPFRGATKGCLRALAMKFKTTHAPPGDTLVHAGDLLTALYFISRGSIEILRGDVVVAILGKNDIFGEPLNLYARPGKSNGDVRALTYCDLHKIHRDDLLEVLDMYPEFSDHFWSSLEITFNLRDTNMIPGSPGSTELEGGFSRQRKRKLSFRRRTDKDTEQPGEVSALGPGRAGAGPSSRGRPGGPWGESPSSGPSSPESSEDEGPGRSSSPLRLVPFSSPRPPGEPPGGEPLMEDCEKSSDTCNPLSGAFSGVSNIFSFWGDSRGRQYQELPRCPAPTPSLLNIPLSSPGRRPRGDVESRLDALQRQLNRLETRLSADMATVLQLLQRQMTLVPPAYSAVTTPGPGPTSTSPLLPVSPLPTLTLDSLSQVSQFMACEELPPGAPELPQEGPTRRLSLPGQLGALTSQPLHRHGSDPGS
Series [5] relates to Mus musculus. Nature of the series: Anti-inflammatory activity in LPS-induced male C57BL/6 mouse model of acute […] injury assessed as reduction in hyperemia of pulmonary alveolar septa in lung at 2 to 6 mg/kg, IG preadministered with compound for 7 days followed by LPS administration and measured after 24 hrs by H and E staining based histopathological analysis. Format: functional, organism-based. To be noted: dose 2-6 mg/kg, time 8.0 day.

Series [6] has as its system Mus musculus. Nature of the series: Anti-inflammatory activity in LPS-induced male C57BL/6 mouse model of acute […] injury assessed as reduction in infiltration of immune cells by measuring decrease in monocytes count at 2 to 6 mg/kg, IG preadministered with compound for 7 days followed by LPS administration and measured after 24 hrs. To be noted: dose 2-6 mg/kg, time 8.0 day. Format: functional, organism-based.

For series [7], the system named is Mus musculus. The series can be described thus: Anti-inflammatory activity in LPS-induced male C57BL/6 mouse model of acute […] injury assessed as reduction in infiltration of immune cells by measuring decrease in WBC count at 2 to 6 mg/kg, IG preadministered with compound for 7 days followed by LPS administration and measured after 24 hrs. Format: functional, organism-based. Particulars: dose 2-6 mg/kg, time 8.0 day.

Series [8] can be described thus: AUC (0 to 24 hrs) in male Sprague-Dawley rat at 20 mg/kg, po measured after 24 hrs by LC-MS/MS analysis. Format: ADME, organism-based. To be noted: male, Sprague-Dawley, in vivo.
In series [9] the target is P2Y purinoceptor 2 (Homo sapiens) (UniProt P41231). Nature of the series: Antagonist activity at human P2Y2R stably expressed in HEK293 cells assessed as inhibition of UTP-induced IP3 accumulation preincubated with compound for 30 mins followed by UTP addition by ELISA. Format: functional, cell-based. A general note: ELISA stands for enzyme-linked immunosorbent assay.
P2Y purinoceptor 2 (Homo sapiens), sequence (P41231 whole entry): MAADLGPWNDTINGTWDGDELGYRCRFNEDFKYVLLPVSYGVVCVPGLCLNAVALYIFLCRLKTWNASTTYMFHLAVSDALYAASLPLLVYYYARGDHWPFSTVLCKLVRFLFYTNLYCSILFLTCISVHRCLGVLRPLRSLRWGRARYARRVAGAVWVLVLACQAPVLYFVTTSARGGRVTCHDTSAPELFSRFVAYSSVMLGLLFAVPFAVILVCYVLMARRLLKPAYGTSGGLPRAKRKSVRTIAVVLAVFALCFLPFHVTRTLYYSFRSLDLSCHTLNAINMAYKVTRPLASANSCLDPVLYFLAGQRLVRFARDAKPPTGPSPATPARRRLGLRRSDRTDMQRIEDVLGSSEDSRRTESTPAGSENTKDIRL

Series [10] concerns Mus musculus. Nature of the series: Anti-inflammatory activity in LPS-induced male C57BL/6 mouse model of acute […] injury assessed as reduction in dsDNA level in BALF at 2 to 6 mg/kg, IG preadministered with compound for 7 days followed by LPS administration and measured after 24 hrs by ELISA. Format: functional, organism-based. Particulars: dose 2-6 mg/kg, time 8.0 day.
Series [11] concerns the target P2Y purinoceptor 6 (Homo sapiens, UniProt Q15077). Nature of the series: Binding affinity to P2Y6R (unknown origin) assessed as dissociation constant by SPR analysis.
Series [12] relates to Mus musculus. Nature of the series: Anti-inflammatory activity in LPS-induced male C57BL/6 mouse model of acute […] injury assessed as reduction in TNF-alpha level in BALF at 2 to 6 mg/kg, IG preadministered with compound for 7 days followed by LPS administration and measured after 24 hrs by ELISA. Format: functional, organism-based. To be noted: dose 2-6 mg/kg, time 8.0 day.

Series [13] has as its system Mus musculus. The series can be described thus: Anti-inflammatory activity in LPS-induced male C57BL/6 mouse model of acute […] injury assessed as reduction in inflammatory infiltration in lung at 2 to 6 mg/kg, IG preadministered with compound for 7 days followed by LPS administration and measured after 24 hrs by H and E staining based histopathological analysis. To be noted: dose 2-6 mg/kg, time 8.0 day. Format: functional, organism-based.

Series [14] relates to Mus musculus. The series can be described thus: Anti-inflammatory activity in LPS-induced male C57BL/6 mouse model of acute […] injury assessed as inhibition of CXCL1 mRNA expression at 2 to 6 mg/kg, IG preadministered with compound for 7 days followed by LPS administration and measured after 24 hrs by RT-PCR analysis. Format: functional, organism-based. Particulars: dose 2-6 mg/kg, time 8.0 day.

Series [15] concerns the target T1, P2Y purinoceptor 14 (Homo sapiens) (UniProt Q15391).
T1 sequence (whole entry): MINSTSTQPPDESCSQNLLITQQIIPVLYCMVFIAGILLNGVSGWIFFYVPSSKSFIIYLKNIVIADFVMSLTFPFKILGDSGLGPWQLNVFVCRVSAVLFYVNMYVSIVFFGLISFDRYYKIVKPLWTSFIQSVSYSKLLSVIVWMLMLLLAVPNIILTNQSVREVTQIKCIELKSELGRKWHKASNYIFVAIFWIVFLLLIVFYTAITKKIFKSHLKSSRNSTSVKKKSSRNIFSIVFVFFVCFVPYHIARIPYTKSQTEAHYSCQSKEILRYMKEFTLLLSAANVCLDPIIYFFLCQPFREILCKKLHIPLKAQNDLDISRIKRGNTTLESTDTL
Nature of the series: Antagonist activity at human P2Y14R stably expressed in HEK293 cells assessed as inhibition of UDPG-induced cAMP accumulation preincubated with compound for 30 mins followed by UDPG addition by cAMP-GloTM assay. Format: functional, cell-based. On the technique in general: cAMP levels reflect the balance of adenylyl cyclase and phosphodiesterase activity.

The nature of series [16]: Tmax in male Sprague-Dawley rat at 20 mg/kg, po measured after 24 hrs by LC-MS/MS analysis. Particulars: male, Sprague-Dawley, in vivo, read-out: Tmax (converted). Format: ADME, organism-based.
Series [17] concerns the target P2Y purinoceptor 12 (Homo sapiens, UniProt Q9H244). The series can be described thus: Antagonist activity at human P2Y12R stably expressed in HEK293 cells assessed as inhibition of MeSADP-induced cAMP accumulation preincubated with compound for 30 mins followed by MeSADP addition by cAMP-GloTM assay. Format: functional, cell-based.
Series [18] concerns Mus musculus. Nature of the series: Anti-inflammatory activity in LPS-induced male C57BL/6 mouse model of acute […] injury assessed as reduction in MPO level in BALF at 2 to 6 mg/kg, IG preadministered with compound for 7 days followed by LPS administration and measured after 24 hrs by ELISA. Format: functional, organism-based. Particulars: dose 2-6 mg/kg, time 8.0 day.
The test system of series [19] is Mus musculus. The series can be described thus: Anti-inflammatory activity in LPS-induced male C57BL/6 mouse model of acute […] injury assessed as absence of lesion in lung parenchyma at 2 to 6 mg/kg, IG preadministered with compound for 7 days followed by LPS administration and measured after 24 hrs by H and E staining based histopathological analysis. Format: functional, organism-based. To be noted: dose 2-6 mg/kg, time 8.0 day.

Series [20] deals with Cytochrome P450 2C19 (Homo sapiens, UniProt P33261). Nature of the series: Inhibition of CYP2C19 in human liver microsomes using s-mephenytoin as substrate preincubated for 10 mins followed by NADPH addition and measured after 10 mins by LC-MS/MS analysis. Format: ADME, Microsome. Background: Microsomes from liver hold many membrane-bound enzymes, among them those of drug oxidation.
Cytochrome P450 2C19, sequence (P33261 whole entry): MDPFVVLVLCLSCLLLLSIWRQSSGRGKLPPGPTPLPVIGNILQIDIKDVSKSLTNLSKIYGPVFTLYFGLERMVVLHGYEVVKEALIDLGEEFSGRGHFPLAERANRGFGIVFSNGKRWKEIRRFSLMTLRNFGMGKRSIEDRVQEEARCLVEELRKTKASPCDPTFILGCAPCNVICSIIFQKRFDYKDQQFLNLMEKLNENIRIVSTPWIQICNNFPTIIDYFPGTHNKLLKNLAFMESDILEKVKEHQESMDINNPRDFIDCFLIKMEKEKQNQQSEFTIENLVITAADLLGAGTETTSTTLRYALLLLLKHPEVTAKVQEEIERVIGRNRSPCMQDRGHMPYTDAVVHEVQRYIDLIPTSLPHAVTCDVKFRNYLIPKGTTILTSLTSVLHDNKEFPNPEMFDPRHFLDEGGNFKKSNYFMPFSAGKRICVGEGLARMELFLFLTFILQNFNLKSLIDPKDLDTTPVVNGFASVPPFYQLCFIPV

The subject of series [21] is Mus musculus. Nature of the series: Anti-inflammatory activity in LPS-induced male C57BL/6 mouse model of acute […] injury assessed as inhibition of CCL2 release at 2 to 6 mg/kg, IG preadministered with compound for 7 days followed by LPS administration and measured after 24 hrs by ELISA. Format: functional, organism-based. To be noted: dose 2-6 mg/kg, time 8.0 day.

Series [22] in a line: AUC (0 to 24 hrs) in male Sprague-Dawley rat at 10 mg/kg, iv measured after 24 hrs by LC-MS/MS analysis. Format: ADME, organism-based. To be noted: in vivo.
Series [23] concerns Mus musculus. The series can be described thus: Anti-inflammatory activity in LPS-induced male C57BL/6 mouse model of acute […] injury assessed as inhibition of CXCL9 mRNA expression at 2 to 6 mg/kg, IG preadministered with compound for 7 days followed by LPS administration and measured after 24 hrs by RT-PCR analysis. Format: functional, organism-based. Particulars: dose 2-6 mg/kg, time 8.0 day.

P2Y purinoceptor 12, sequence (Q9H244 whole entry): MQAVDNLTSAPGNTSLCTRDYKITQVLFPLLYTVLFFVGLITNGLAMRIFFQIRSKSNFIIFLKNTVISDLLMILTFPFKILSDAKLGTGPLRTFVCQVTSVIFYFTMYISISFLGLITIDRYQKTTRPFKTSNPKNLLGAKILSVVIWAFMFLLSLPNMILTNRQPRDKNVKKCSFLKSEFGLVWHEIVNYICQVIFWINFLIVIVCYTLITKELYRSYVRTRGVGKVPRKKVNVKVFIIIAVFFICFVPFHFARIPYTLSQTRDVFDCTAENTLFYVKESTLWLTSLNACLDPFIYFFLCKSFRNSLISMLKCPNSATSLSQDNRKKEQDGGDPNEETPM
P2Y purinoceptor 6, sequence (Q15077 whole entry): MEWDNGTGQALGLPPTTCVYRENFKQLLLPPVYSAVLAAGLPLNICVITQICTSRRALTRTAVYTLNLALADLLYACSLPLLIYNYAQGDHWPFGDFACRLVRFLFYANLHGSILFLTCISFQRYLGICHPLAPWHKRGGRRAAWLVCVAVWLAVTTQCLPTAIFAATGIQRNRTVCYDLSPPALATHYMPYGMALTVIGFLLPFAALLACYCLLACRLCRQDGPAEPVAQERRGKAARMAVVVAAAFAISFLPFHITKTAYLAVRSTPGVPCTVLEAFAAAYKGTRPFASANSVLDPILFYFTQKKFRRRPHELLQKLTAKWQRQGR

Usually pIC50 stands for the IC50 on a negative log10 scale, so that one unit is a factor of ten. A high value points to a low IC50. A word on the AUC(0-t): it is exposure summed from dosing to a finite time, without extrapolation to infinity. As a reminder, the pKd is −log10 of the Kd, conventionally taken in molar units. Usually Tmax stands for the time at which the peak concentration occurs. As a reminder, the AUC is the area under the concentration-time curve, a measure of exposure. High values mean high exposure, low ones low exposure. Consider `O=C(O)CCC(=O)N1N=C(c2ccc[nH]2)CC1c1cnc2ccccc2c1` (stereo not drawn), for which the outcome in series [1], in [2], in [3], in series [5], in series [6] and in [7] was Active. The outcome in [10], in series [12], in series [13], in series [14], in [18] and in [19] was Active. In addition, the result in [21] and in series [23] was Active. Further, the pIC50 in series [4] and in series [20] was below 4.30 in each case. The compound also came in with an AUC(0-t) at 24 h in series [8] of 2980 ng·h/mL. Moreover, the outcome in series [9], in series [15] and in series [17] was inactive. The negative logarithm of the Kd (pKd) in series [11] is 5.85. The Tmax in series [16] is 46 min. For the same compound, in [22], the AUC was 1956 µg·h/L.
